Measurements reported in PubChem BioAssay (NCI).
“And” between values parts separate entries of the source, which are not always exact repeats. Identical values can stand only once.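 Protocol summary: plate cells (96-well), add compound at 5 concentrations, incubate 48 h, interpolate endpoints linearly. The concentration for 50% growth inhibition is given as GI50. The concentration for full growth arrest is given as TGI.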

Columns and labels:
Assay in all cases: growth of human tumour cells (NCI), 48 h
U251 CNS = system: U251 CNS
TK-10 renal = system: TK-10 renal
RXF 393 renal = system: RXF 393 renal
CCRF-CEM leukemia = system: CCRF-CEM leukemia
BT-549 breast = system: BT-549 breast
SK-MEL-2 melanoma = system: SK-MEL-2 melanoma
HOP-62 NSCLC = system: HOP-62 NSCLC
NCI-H460 lung = system: NCI-H460 lung
EKVX NSCLC = system: EKVX NSCLC
HT29 colon = system: HT29 colon

Structure (SMILES)	GI50 (U251 CNS)	TGI (U251 CNS)	GI50 (TK-10 renal)	TGI (TK-10 renal)	TGI (RXF 393 renal)	GI50 (CCRF-CEM leukemia)	TGI (CCRF-CEM leukemia)	TGI (BT-549 breast)	GI50 (SK-MEL-2 melanoma)	TGI (SK-MEL-2 melanoma)	GI50 (HOP-62 NSCLC)	TGI (HOP-62 NSCLC)	GI50 (NCI-H460 lung)	TGI (NCI-H460 lung)	GI50 (EKVX NSCLC)	TGI (EKVX NSCLC)	GI50 (HT29 colon)	TGI (HT29 colon)	GI50 (RXF 393 renal)	GI50 (BT-549 breast)
Cc1c(N)nc(C2CC(=O)N2CC(N)C(N)=O)nc1C(=O)NC(C(=O)NC(C)C(O)C(C)C(=O)NC(C(=O)NCCc1nc(-c2nc(C(=O)NCCNCC(C)O)cs2)cs1)C(C)O)C(OC1OC(CO)C(O)C(O)C1OC1OC(CO)C(O)C(OC(N)=O)C1O)c1cnc[nH]1 (stereo not drawn)	2530 nM	50 µM and 24.2 µM	11.1 µM	50 µM and > 100 µM	425 nM	12.6 µM	50 µM and > 33 µM	> 50000 nM	31.7 µM	50 µM and > 79.2 µM	188 nM	6250 nM and 914 nM	208 nM	50 µM and 13.6 µM	> 50000 nM	> 88900 nM	33.1 µM	50 µM and > 100 µM	–	–
CCC(=C(c1ccc(OCCN(CC)CC)cc1)c1ccc(OCCN(CC)CC)cc1)c1ccc(Cl)cc1	570 nM	1.14 µM	0.528 µM	1.1 µM	962 nM	0.641 µM	1.74 µM	1450 nM	0.634 µM	1.27 µM	598 nM	1280 nM	619 nM	1.17 µM	641 nM	1460 nM	0.51 µM	1.15 µM	485 nM	647 nM
